Results published in patent US12611438B2, “Antiviral composition comprising a nucleolin-binding peptide” (ANYGEN CO., LTD., priority 2021, dated 2026).
Read-outs that look alike come from different tables or passages of the source.

What was measured:
influenza A virus = assay type: in vivo, C57BL/6 mice; settings: 0.04, 0.2, and 1.00 mg/kg i.p. once a day for 5 days, observed 16 days
[1] = tested on: A549, MDCK, Vero E6, MA104, MARC-145, and LLC-PK cells; settings: 10 μM
SARS-COV-2 = settings: for Lung, Alveolar wall thickening: Mild, incidence / Lung, Alveolar wall thickening: Minimal, incidence / Lung, Alveolar wall thickening: Moderate, incidence / Lung, Alveolar wall thickening: Normal, incidence / Lung, Alveolar wall thickening: Severe, incidence / Lung, Hemorrhage: Mild, incidence / Lung, Hemorrhage: Minimal, incidence / Lung, Hemorrhage: Moderate, incidence / Lung, Hemorrhage: Normal, incidence / Lung, Hemorrhage: Severe, incidence / Lung, Hyaline membrane: Mild, incidence / Lung, Hyaline membrane: Minimal, incidence / Lung, Hyaline membrane: Moderate, incidence / Lung, Hyaline membrane: Normal, incidence / Lung, Hyaline membrane: Severe, incidence / Lung, Inflammatory cell, intestinal: Mild, incidence / Lung, Inflammatory cell, intestinal: Minimal, incidence / Lung, Inflammatory cell, intestinal: Moderate, incidence / Lung, Inflammatory cell, intestinal: Normal, incidence / Lung, Inflammatory cell, intestinal: Severe, incidence / Lung, Neutrophilic/lymphocytic cell, alveolar: Mild, incidence / Lung, Neutrophilic/lymphocytic cell, alveolar: Minimal, incidence / Lung, Neutrophilic/lymphocytic cell, alveolar: Moderate, incidence / Lung, Neutrophilic/lymphocytic cell, alveolar: Normal, incidence / Lung, Proteinaceous debris: Mild, incidence / Lung, Proteinaceous debris: Minimal, incidence / Lung, Proteinaceous debris: Moderate, incidence / Lung, Proteinaceous debris: Normal, incidence / Lung, Proteinaceous debris: Severe, incidence: 5 animals
Method: Syrian hamsters (Female, 11 weeks, Raon Bio Co., Ltd.) were infected with SARS-COV-2 (2×10^5 pfu/mL) through intranasal irrigation.
Body weight was measured on the day of infection, the second day after infection, and the fourth day after infection.
Autopsy was measured on the fourth day after infection.

in vitro [2] = settings: African green monkey
in vitro [3] = assay type: cell-based
Method: In order to determine the half maximal cytotoxic concentration (CC50) of AGM-330, confluent A549, MDCK, Vero E6, MA104, MARC-145, and LLC-PK cells grown in 96-well plates were treated with dilutions of NCL-targeting peptide ligands (AGM-330d-mCPP, AGM-330t-mCPP) prepared from a low concentration to […], followed by incubation for 24 hours. After removing each culture medium, 200 μL of a 3-(4,5-dimethylthiazol-2-yl)-2,5-diphenyl tetrazolium bromide (MTT) solution was added thereto, followed by incubation in a 5% CO2 incubator at 36° C. for 4 hours. Then, 150 μL of a DMSO solution was added to each well and then incubated at 20° C. Then, the optical density (OD) was measured at a wavelength of 570 nm with an enzyme-linked immunosorbent assay (ELISA) reader (Table 6).

## CC[C@H](C)[C@H](NC(=O)[C@H](CCCNC(=N)N)NC(=O)CCN1C(=O)CC(SC[C@H](NC(=O)[C@H](CCCCNC(=O)CCOCCOCCOCCOCCOCCOCCNC(=O)[C@H](CCCCN)NC(=O)[C@H](CC(C)C)NC(=O)[C@H](Cc2ccc(O)cc2)NC(=O)[C@@H](NC(=O)[C@H](CCSC)NC(=O)[C@H](C)NC(=O)CNC(=O)[C@H](Cc2c[nH]cn2)NC(=O)[C@@H](N)CCCNC(=N)N)C(C)C)NC(=O)CCOCCOCCOCCOCCOCCOCCNC(=O)[C@H](CCCCN)NC(=O)[C@H](CC(C)C)NC(=O)[C@H](Cc2ccc(O)cc2)NC(=O)[C@@H](NC(=O)[C@H](CCSC)NC(=O)[C@H](C)NC(=O)CNC(=O)[C@H](Cc2c[nH]cn2)NC(=O)[C@@H](N)CCCNC(=N)N)C(C)C)C(=O)O)C1=O)C(=O)N[C@@H](CCSC)C(=O)N[C@@H](CCCNC(=N)N)C(=O)N[C@H](C(=O)N[C@@H](CC(C)C)C(=O)N[C@@H](CCCNC(=N)N)C(=O)N[C@H](C(=O)N[C@@H](CC(C)C)C(=O)N[C@@H](CCCCN)C(=O)N[C@@H](CC(C)C)C(=O)N[C@@H](C)C(=O)N[C@@H](CCCNC(=N)N)C(=O)O)[C@@H](C)CC)[C@@H](C)CC (stereo partly shown) [AGM-330d-mCPP]
Influenza A virus
  survival rate: significantly improved survival rate
[1]
  cytotoxicity at high concentration: did not exhibit significant cytotoxicity
SARS-COV-2; 6 mg/kg
  lung histopathological lesions versus virus control group: significantly reduced
SARS-COV-2; 6 mg/kg, autopsy fourth day after infection
  macroscopic lung changes versus virus control group: significantly alleviated
SARS-COV-2; 0.2, 2, 6 mg/kg i.p., eight times for four days, observed 5 days after infection
  mortality: no dead animals occurred
SARS-COV-2; 0.2, 2, 6 mg/kg i.p., day of infection, day 2, day 4
  body weight change versus virus control group: No significant weight change
SARS-COV-2; AGM-1: 0.2 mg/kg
  Lung, Alveolar wall thickening: Mild, incidence: 3
  Lung, Alveolar wall thickening: Minimal, incidence: 0
  Lung, Alveolar wall thickening: Moderate, incidence: 2
  Lung, Alveolar wall thickening: Normal, incidence: 0
  Lung, Alveolar wall thickening: Severe, incidence: 0
  Lung, Hemorrhage: Mild, incidence: 2
  Lung, Hemorrhage: Minimal, incidence: 3
  Lung, Hemorrhage: Moderate, incidence: 0
  Lung, Hemorrhage: Normal, incidence: 0
  Lung, Hemorrhage: Severe, incidence: 0
  Lung, Hyaline membrane: Mild, incidence: 3
  Lung, Hyaline membrane: Minimal, incidence: 0
  Lung, Hyaline membrane: Moderate, incidence: 2
  Lung, Hyaline membrane: Normal, incidence: 0
  Lung, Hyaline membrane: Severe, incidence: 0
  Lung, Inflammatory cell, intestinal: Mild, incidence: 2
  Lung, Inflammatory cell, intestinal: Minimal, incidence: 0
  Lung, Inflammatory cell, intestinal: Moderate, incidence: 3
  Lung, Inflammatory cell, intestinal: Normal, incidence: 0
  Lung, Inflammatory cell, intestinal: Severe, incidence: 0
  Lung, Neutrophilic/lymphocytic cell, alveolar: Mild, incidence: 3
  Lung, Neutrophilic/lymphocytic cell, alveolar: Minimal, incidence: 2
  Lung, Neutrophilic/lymphocytic cell, alveolar: Moderate, incidence: 0
  Lung, Neutrophilic/lymphocytic cell, alveolar: Normal, incidence: 0
  Lung, Proteinaceous debris: Mild, incidence: 2
  Lung, Proteinaceous debris: Minimal, incidence: 3
  Lung, Proteinaceous debris: Moderate, incidence: 0
  Lung, Proteinaceous debris: Normal, incidence: 0
  Lung, Proteinaceous debris: Severe, incidence: 0
SARS-COV-2; AGM-2: 2 mg/kg
  Lung, Alveolar wall thickening: Mild, incidence: 3
  Lung, Alveolar wall thickening: Minimal, incidence: 0
  Lung, Alveolar wall thickening: Moderate, incidence: 2
  Lung, Alveolar wall thickening: Normal, incidence: 0
  Lung, Alveolar wall thickening: Severe, incidence: 0
  Lung, Hemorrhage: Mild, incidence: 3
  Lung, Hemorrhage: Minimal, incidence: 2
  Lung, Hemorrhage: Moderate, incidence: 0
  Lung, Hemorrhage: Normal, incidence: 0
  Lung, Hemorrhage: Severe, incidence: 0
  Lung, Hyaline membrane: Mild, incidence: 3
  Lung, Hyaline membrane: Minimal, incidence: 0
  Lung, Hyaline membrane: Moderate, incidence: 2
  Lung, Hyaline membrane: Normal, incidence: 0
  Lung, Hyaline membrane: Severe, incidence: 0
  Lung, Inflammatory cell, intestinal: Mild, incidence: 1
  Lung, Inflammatory cell, intestinal: Minimal, incidence: 0
  Lung, Inflammatory cell, intestinal: Moderate, incidence: 3
  Lung, Inflammatory cell, intestinal: Normal, incidence: 0
  Lung, Inflammatory cell, intestinal: Severe, incidence: 1
  Lung, Neutrophilic/lymphocytic cell, alveolar: Mild, incidence: 3
  Lung, Neutrophilic/lymphocytic cell, alveolar: Minimal, incidence: 2
  Lung, Neutrophilic/lymphocytic cell, alveolar: Moderate, incidence: 0
  Lung, Neutrophilic/lymphocytic cell, alveolar: Normal, incidence: 0
  Lung, Proteinaceous debris: Mild, incidence: 2
  Lung, Proteinaceous debris: Minimal, incidence: 3
  Lung, Proteinaceous debris: Moderate, incidence: 0
  Lung, Proteinaceous debris: Normal, incidence: 0
  Lung, Proteinaceous debris: Severe, incidence: 0
SARS-COV-2; AGM-3: 6 mg/kg
  Lung, Alveolar wall thickening: Mild, incidence: 3
  Lung, Alveolar wall thickening: Minimal, incidence: 2
  Lung, Alveolar wall thickening: Moderate, incidence: 0
  Lung, Alveolar wall thickening: Normal, incidence: 0
  Lung, Alveolar wall thickening: Severe, incidence: 0
  Lung, Hemorrhage: Mild, incidence: 0
  Lung, Hemorrhage: Minimal, incidence: 5
  Lung, Hemorrhage: Moderate, incidence: 0
  Lung, Hemorrhage: Normal, incidence: 0
  Lung, Hemorrhage: Severe, incidence: 0
  Lung, Hyaline membrane: Mild, incidence: 1
  Lung, Hyaline membrane: Minimal, incidence: 4
  Lung, Hyaline membrane: Moderate, incidence: 0
  Lung, Hyaline membrane: Normal, incidence: 0
  Lung, Hyaline membrane: Severe, incidence: 0
  Lung, Inflammatory cell, intestinal: Mild, incidence: 3
  Lung, Inflammatory cell, intestinal: Minimal, incidence: 2
  Lung, Inflammatory cell, intestinal: Moderate, incidence: 0
  Lung, Inflammatory cell, intestinal: Normal, incidence: 0
  Lung, Inflammatory cell, intestinal: Severe, incidence: 0
  Lung, Neutrophilic/lymphocytic cell, alveolar: Mild, incidence: 0
  Lung, Neutrophilic/lymphocytic cell, alveolar: Minimal, incidence: 5
  Lung, Neutrophilic/lymphocytic cell, alveolar: Moderate, incidence: 0
  Lung, Neutrophilic/lymphocytic cell, alveolar: Normal, incidence: 0
  Lung, Proteinaceous debris: Mild, incidence: 1
  Lung, Proteinaceous debris: Minimal, incidence: 4
  Lung, Proteinaceous debris: Moderate, incidence: 0
  Lung, Proteinaceous debris: Normal, incidence: 0
  Lung, Proteinaceous debris: Severe, incidence: 0
In vitro [2]
  CC50 at 24 h: > 20 µM
In vitro [3]; African green monkey, MA-104, MTT
  CC50 at 24 h: 99.9 µM
In vitro [3]; African green monkey, MARC-145, MTT
  CC50 at 24 h: 98 µM
In vitro [3]; African green monkey, Vero E6, MTT
  CC50 at 24 h: 108 µM
In vitro [3]; human, A549, MTT
  CC50 at 24 h: 102 µM
In vitro [3]; human, HRT-18, MTT
  CC50 at 24 h: 89.5 µM
In vitro [3]; pig, LLC-PK, MTT
  CC50 at 24 h: 101 µM
